The text below walks through data of patent publication US20060222595A1, “Nanoparticles for therapeutic and diagnostic applications” (priority 2005, published 2006).

This data set can be described thus: Saturation concentration of agents on gold nanoparticles (UV-Visible absorbance). The class given is physicochemical. As for the experimental part:
The individual saturation concentrations of a monoclonal anti-VEGF antibody agent and a gemcitabine agent to gold nanoparticles were determined in the following manner. Eight tubes containing 1 ml of gold nanoparticles each were incubated with increasing concentrations of the anti-VEGF antibody for 30 minutes, followed by an aggregation assay involving incubation with 100 μl of a 10% NaCl solution. Approximately 15 min. after the addition of the NaCl solution, the UV-Visible spectra were recorded using a Shimadzu model system (UV2401 PC), and the saturation concentration of the antibody was determined.
The attachment of gemcitabine to the gold nanoparticles and the determination of its saturation concentration were performed similarly.
The saturation concentration of gemcitabine on the gold nanoparticles was determined in a similar manner. Gold nanoparticles were incubated with different concentrations of gemcitabine for 30 min., and their UV-Visible spectra were recorded. […] This shift in Ymax value with a concomitant decrease in absorbance and a broadening of the spectra may be attributed to the aggregation of gold nanoparticles upon the addition of gemcitabine beyond the 20 μg limit. […]

For the molecule `NCCc1ccc(O)c(O)c1` [dopamine], the “saturation concentration of dopamine on gold nanoparticles” value (surface plasmon resonance band, UV-visible spectroscopy) was roughly 30 µg/mL.

With `Nc1ccn([C@@H]2O[C@H](CO)[C@@H](O)C2(F)F)c(=O)n1` [gemcitabine], the “saturation concentration of gemcitabine on gold nanoparticles (absorbance maximum)” value (30 min incubation, UV-Visible spectra) is 20 µg.
